Measurements: PubChem BioAssay AID1918949 (Molecular Pharmacology Branch, DTP, NCI, 2023)
pIC50: −log10 of the molar value.

Test system: K24384-001-R-PDC complex spheroid viability
Assay: Anticancer human tumor K24384-001-R-PDC patient-derived pancreatic adenocarcinoma cell line growth inhibition
Settings: for pIC50: curve of first compound; for viability, T/C: stronger effect = lower value
Summary of the method: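 Drug combinations with the LSD1 inhibitor iadademstat tested on tumor cells co-cultured as spheroids with endothelial cells and mesenchymal stem cells. Concentrations descended in half-log increments from clinical Cmax or 10 microM.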

[1] = second compound 0.1 µM, first compound 0.0316 µM
[2] = second compound 0.1 µM, first compound 0.1 µM
[3] = second compound 0.1 µM, first compound 0.316 µM
[4] = second compound 0.1 µM, first compound 1 µM
[5] = second compound 0.1 µM, first compound 3.16 µM
[6] = second compound 0.1 µM, first compound 10 µM
[7] = second compound 0.316 µM, first compound 0.0316 µM
[8] = second compound 0.316 µM, first compound 0.1 µM
[9] = second compound 0.316 µM, first compound 0.316 µM
[10] = second compound 0.316 µM, first compound 1 µM
[11] = second compound 0.316 µM, first compound 3.16 µM
[12] = second compound 0.316 µM, first compound 10 µM
[13] = second compound 1 µM, first compound 0.0316 µM
[14] = second compound 1 µM, first compound 0.1 µM
[15] = second compound 1 µM, first compound 0.316 µM
[16] = second compound 1 µM, first compound 1 µM
[17] = second compound 1 µM, first compound 3.16 µM
[18] = second compound 1 µM, first compound 10 µM
[19] = second compound 3.16 µM, first compound 0.0316 µM
[20] = second compound 3.16 µM, first compound 0.1 µM
[21] = second compound 3.16 µM, first compound 0.316 µM
[22] = second compound 3.16 µM, first compound 1 µM
[23] = second compound 3.16 µM, first compound 3.16 µM
[24] = second compound 3.16 µM, first compound 10 µM
[25] = second compound 10 µM, first compound 0.0316 µM
[26] = second compound 10 µM, first compound 0.1 µM
[27] = second compound 10 µM, first compound 0.316 µM
[28] = second compound 10 µM, first compound 1 µM
[29] = second compound 10 µM, first compound 3.16 µM
[30] = second compound 10 µM, first compound 10 µM
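Also: spheroids exposed to agents for seven days before luminescence viability reading.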
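For viability, T/C in this document: 100% = DMSO vehicle control viability.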

| Structure (SMILES) | pIC50 (second compound 0.1 µM) | pIC50 (second compound 0.316 µM) | pIC50 (second compound 1 µM) | pIC50 (second compound 3.16 µM) | pIC50 (second compound 10 µM) | viability, T/C [1] [%] | viability, T/C [2] [%] | viability, T/C [3] [%] | viability, T/C [4] [%] | viability, T/C [7] [%] | viability, T/C [8] [%] | viability, T/C [9] [%] | viability, T/C [10] [%] | viability, T/C [13] [%] | viability, T/C [14] [%] | viability, T/C [15] [%] | viability, T/C [16] [%] | viability, T/C [19] [%] | viability, T/C [20] [%] | viability, T/C [21] [%] | further results |
| --- | --- | --- | --- | --- | --- | --- | --- | --- | --- | --- | --- | --- | --- | --- | --- | --- | --- | --- | --- | --- | --- |
| CC(C)c1c(-c2ccccc2)nc2c(C#N)c[nH]n2c1=O + NC1CC1c1ccc(-c2cccc(O)c2)cc1 | < 5.00 | < 5.00 | < 5.00 | < 5.00 | < 5.00 | 84 | 114 | 71 | 86.7 | 119 | 84.1 | 65.9 | 86 | 82.3 | 62.7 | 72.6 | 65 | 85.5 | 79 | 91.4 | viability, T/C [5]: 73.1%; viability, T/C [6]: 76.3%; viability, T/C [11]: 90.8%; viability, T/C [12]: 74.8%; viability, T/C [17]: 70.1%; viability, T/C [18]: 69.8%; viability, T/C [22]: 66.9%; viability, T/C [23]: 67.3%; viability, T/C [24]: 72.2%; viability, T/C [25]: 78.8%; viability, T/C [26]: 86.2%; viability, T/C [27]: 84.8%; viability, T/C [28]: 76.5%; viability, T/C [29]: 70.8%; viability, T/C [30]: 76.8% |
| CC1COCCN1c1cc(-c2ccnn2C)c2ccnc(-c3ccn[nH]3)c2n1 (stereo not given) + NC1CC1c1ccc(-c2cccc(O)c2)cc1 | 8.33 | 6.49 | 7.79 | 7.98 | 6.46 | 40.2 | 44.7 | 46.9 | 38 | 51 | 45.1 | 53.5 | 34 | 40.9 | 42.9 | 43.8 | 35.8 | 43.7 | 39.7 | 48.1 | viability, T/C (second compound 0.1 µM, first compound 0.00316 µM): 51.2%; viability, T/C (second compound 0.1 µM, first compound 0.01 µM): 51.4%; viability, T/C (second compound 0.316 µM, first compound 0.00316 µM): 56.1%; viability, T/C (second compound 0.316 µM, first compound 0.01 µM): 46.6%; viability, T/C (second compound 1 µM, first compound 0.00316 µM): 53%; viability, T/C (second compound 1 µM, first compound 0.01 µM): 59.9%; viability, T/C (second compound 3.16 µM, first compound 0.00316 µM): 56.5%; viability, T/C (second compound 3.16 µM, first compound 0.01 µM): 52.3%; viability, T/C [22]: 37%; viability, T/C (second compound 10 µM, first compound 0.00316 µM): 64.2%; viability, T/C (second compound 10 µM, first compound 0.01 µM): 60.1%; viability, T/C [25]: 51.1%; viability, T/C [26]: 59%; viability, T/C [27]: 51.8%; viability, T/C [28]: 31.7% |
| CC1COCCN1c1cc(C2(S(C)(=N)=O)CC2)nc(-c2ccnc3[nH]ccc23)n1 (stereo not given) + NC1CC1c1ccc(-c2cccc(O)c2)cc1 | 5.81 | 5.86 | 5.93 | 5.88 | 6.11 | 89.4 | 108 | 95.3 | 58.8 | 85.8 | 85.9 | 72.3 | 57.7 | 79.5 | 73.9 | 76.5 | 53 | 82.4 | 77.4 | 73.2 | viability, T/C [5]: 33.7%; viability, T/C [6]: 38.1%; viability, T/C [11]: 34%; viability, T/C [12]: 36.4%; viability, T/C [17]: 29.1%; viability, T/C [18]: 34.1%; viability, T/C [22]: 56.7%; viability, T/C [23]: 27.9%; viability, T/C [24]: 32%; viability, T/C [25]: 87.7%; viability, T/C [26]: 81.5%; viability, T/C [27]: 70%; viability, T/C [28]: 45.2%; viability, T/C [29]: 29.1%; viability, T/C [30]: 31.1% |
